Test results from ChEMBL document CHEMBL1137708, “3D-QSAR studies of boron-containing dipeptides as proteasome inhibitors with CoMFA and CoMSIA methods” (Eur J Med Chem, 2009).

Assay: Inhibition of SDS-activated 20S proteasome activity in rabbit muscle
Assay type: tissue-based, Oryctolagus cuniculus, Muscle tissue

| Compound | pKi |
| --- | --- |
| CC(=O)N[C@@H](Cc1cccnc1)C(=O)N[C@@H](CC(C)C)B(O)O | 8.27 |
| CC(C)C[C@H](NC(=O)[C@H](Cc1cccnc1)NS(C)(=O)=O)B(O)O | 8.2 |
| CC(C)C[C@H](NC(=O)[C@H](Cc1cccc2ccccc12)NS(C)(=O)=O)B1OCCNCCO1 | 9.55 |
| CC(C)C[C@H](NC(=O)[C@H](Cc1ccccc1)NC(=O)N1CCOCC1)B(O)O | 9.09 |
| CC(C)C[C@H](NC(=O)[C@H](CC(C)C)NC(=O)OCc1ccccc1)B(O)O | 8.52 |
| Cc1ccc(S(=O)(=O)N[C@@H](Cc2cccc3ccccc23)C(=O)N[C@@H](CC(C)C)B(O)O)cc1 | 9.77 |
| CC(C)C[C@H](NC(=O)[C@H](Cc1ccc(OCc2ccccn2)cc1)NC(=O)N1CCOCC1)B(O)O | 9.7 |
| CC(C)C[C@H](NC(=O)[C@H](Cc1ccccc1)NC(=O)c1cccnc1)B(O)O | 9.6 |
| CC(C)C[C@H](NC(=O)[C@H](Cc1ccccn1)NC(=O)c1ccc2ccccc2n1)B(O)O | 8.85 |
| CC(C)C[C@H](NC(=O)[C@H](Cc1ccccc1)NC(=O)c1ccccc1)B(O)O | 9.82 |
| CC(C)C[C@H](NC(=O)[C@H](Cc1ccccc1)NC(=O)c1cc[nH]c1)B(O)O | 9.85 |
| CC(C)C[C@H](NC(=O)[C@H](CC(C)C)N(C)C(=O)OCc1ccccc1)B(O)O | 6 |
| CC(C)C[C@H](NC(=O)[C@H](Cc1ccccc1)NC(=O)c1ccccn1)B(O)O | 9.38 |
| CC(C)C[C@H](NC(=O)[C@H](Cc1ccccn1)NC(=O)c1cnccn1)B(O)O | 8.15 |
| CC(C)C[C@H](NC(=O)[C@H](Cc1ccc(F)cc1)NC(=O)c1cnccn1)B(O)O | 9.02 |
| CC(C)C[C@H](NC(=O)[C@H](Cc1c[nH]cn1)NC(=O)OCc1ccccc1)B(O)O | 7.6 |
| CC(C)C[C@H](NC(=O)[C@@H](N)Cc1cccnc1)B(O)O | 6.82 |
| CC(C)C[C@H](NC(=O)[C@H](Cc1c[nH]c2ccccc12)NS(C)(=O)=O)B(O)O | 8.24 |
| CC(C)C[C@H](NC(=O)[C@H](Cc1cccc2ccccc12)NC(=O)c1cnc2ccccc2n1)B(O)O | 9.85 |
| CB(C)[C@H](CC(C)C)NC(=O)[C@H](CCc1ccccc1)NC(=O)N1CCOCC1 | 8.66 |

| Compound | pKi |
| --- | --- |
| B[C@H](CC(C)C)NC(=O)[C@H](Cc1cccc2ccccc12)NC(=O)N1CCOCC1 | 8.7 |
| CC(C)C[C@H](NC(=O)[C@H](Cc1cccc2ccccc12)NC(=O)c1ccccc1)B(O)O | 10.06 |
| CC(C)C[C@H](NC(=O)[C@H](Cc1c[nH]c2ccccc12)NC(=O)N1CCOCC1)B(O)O | 8.52 |
| CC(C)C[C@H](NC(=O)[C@H](Cc1cccc2ccccc12)NC(=O)N1CCOCC1)B1OCCNCCO1 | 9.82 |
| CC(C)C[C@H](NC(=O)[C@H](Cc1ccccc1)NC(=O)c1ccc2ccccc2n1)B(O)O | 9.72 |
| CC(C)C[C@H](NC(=O)[C@H](Cc1ccc2ccccc2n1)NC(=O)N1CCOCC1)B(O)O | 8.66 |
| CC(C)C[C@H](NC(=O)[C@H](Cc1ccccc1)NC(=O)NCc1ccccc1)B(O)O | 9.85 |
| CC(C)C[C@H](NC(=O)[C@@H](N)Cc1ccccn1)B(O)O | 7.5 |
| CC(C)C[C@H](NC(=O)[C@H](Cc1ccccn1)NC(=O)C1CCCCC1)B(O)O | 8.96 |
| CC(=O)N[C@@H](Cc1cccc2ccccc12)C(=O)N[C@@H](CC(C)C)B(O)O | 9.77 |
| CC(C)C[C@H](NC(=O)[C@H](Cc1cccc2ccccc12)NC(=O)C1CCCCC1)B(O)O | 10.52 |
| CN[C@@H](Cc1cccc2ccccc12)C(=O)N[C@@H](CC(C)C)B(O)O | 8.96 |
| CC(C)C[C@H](NC(=O)[C@H](Cc1ccccn1)NS(=O)(=O)c1cccc2cccnc12)B(O)O | 7.54 |
| CC(C)C[C@H](NC(=O)[C@H](Cc1ccccc1)NC(=O)c1ccoc1)B(O)O | 9.77 |
| CB(O)[C@H](CC(C)C)NC(=O)[C@H](Cc1cccc2ccccc12)NC(=O)N1CCOCC1 | 7 |
| CB(C)[C@H](CC(C)C)NC(=O)[C@H](CCc1ccccc1)NC(=O)c1ccc2ccccc2n1 | 8.55 |
| CC(C)C[C@H](NC(=O)[C@@H](N)Cc1cccc2ccccc12)B(O)O | 8.12 |
| CC(C)C[C@H](NC(=O)[C@H](Cc1ccc(O)cc1)NC(=O)N1CCOCC1)B(O)O | 9.29 |
| CC(C)C[C@H](NC(=O)[C@H](Cc1cccnc1)NC(=O)N1CCOCC1)B(O)O | 8.89 |
| CC(C)C[C@H](NC(=O)[C@H](Cc1cccc2ccccc12)NC(=O)c1ccc2ccccc2n1)B(O)O | 10.12 |

| Compound | pKi |
| --- | --- |
| CC(C)C[C@H](NC(=O)[C@H](Cc1ccccn1)NC(=O)c1ccccc1)B(O)O | 9.12 |
| CC(C)C[C@H](NC(=O)[C@H](Cc1ccccc1)NS(=O)(=O)c1cccc2cccnc12)B(O)O | 8.36 |
| CC(C)C[C@H](NC(=O)[C@H](Cc1ccccn1)NC(=O)N1CCOCC1)B(O)O | 8.2 |
| CC(=O)N[C@@H](Cc1c[nH]c2ccccc12)C(=O)N[C@@H](CC(C)C)B(O)O | 8.89 |
| CC(C)C[C@H](NC(=O)[C@H](Cc1cccc2ccccc12)NC(=O)OCc1ccccc1)B(O)O | 10.08 |
| CC(C)C[C@H](NC(=O)[C@H](Cc1ccc2ncccc2c1)NC(=O)N1CCOCC1)B(O)O | 8.22 |
| CC(C)C[C@H](NC(=O)[C@H](Cc1cccc2ccccc12)N(C)C(=O)OCc1ccccc1)B(O)O | 9.02 |
| CC(C)C[C@H](NC(=O)[C@H](Cc1ccccc1)NC(=O)OCc1ccccc1)B(O)O | 9.89 |
| CB(C)[C@H](CC(C)C)NC(=O)[C@H](Cc1cccc2ccccc12)NC(=O)N1CCOCC1 | 6.19 |
| CC(C)C[C@H](NC(=O)[C@H](Cc1ccc(OCc2ccccc2)cc1)NC(=O)N1CCOCC1)B(O)O | 9.64 |
| CC(C)C[C@@H](NC(=O)[C@H](N)Cc1cccc2ccccc12)B(O)O.Cl (single isomer, unassigned) | 8.41 |
| CC(C)CC(NC(=O)[C@H](Cc1cccc2ccccc12)NC(=O)N1CCOCC1)B(O)O (single isomer, unassigned) | 9.14 |
| CC(C)CC(NC(=O)[C@H](Cc1ccccc1)NC(=O)CCc1ccccc1)B(O)O (single isomer, unassigned) | 9.82 |
| CC(C)CC(NC(=O)[C@H](Cc1ccc(F)cc1)NC(=O)c1ccccn1)B(O)O (single isomer, unassigned) | 9.08 |
| CC(C)CC(NC(=O)[C@H](Cc1cccc2ccccc12)NS(=O)(=O)c1cccc2cccnc12)B(O)O (single isomer, unassigned) | 8.77 |
| CC(C)CC(NC(=O)[C@H](Cc1cccc2ccccc12)NC(=O)OCc1ccccc1)B1O[C@@H]2[C@H]3C[C@@H](C[C@]2(C)O1)C3(C)C (single isomer, unassigned) | 10 |
| CC(C)CC(NC(=O)C(CC(C)C)NC(=O)OCc1ccccc1)B1O[C@@H]2[C@H]3C[C@@H](C[C@]2(C)O1)C3(C)C (single isomer, unassigned) | 6.92 |
| CC(C)C[C@H](NC(=O)[C@H](Cc1ccccc1)NC(=O)c1cnccn1)B(O)O [BORTEZOMIB] | 9.22 |
